Experimental data: publication PMC10385825, “Synthesis of Benzocycloalkanone-Based Michael Acceptors and Biological Activities as Antimalarial and Antitrypanosomal Agents” (Molecules, 2023)
Values joined by “and” are separate entries in the source; they are usually repeats but may differ in a detail not shown here. Equal values may be shown once. Values belong to the compound of their own block, whether it stands above or below them.

Columns and labels:
[1] = tested on: T. cruzi epimastigotes (Y strain); assay: Trypanocidal activity, proliferation of T. cruzi epimastigotes (MTT); format: cell-based; details: Trypanosoma cruzi, 96 h, read-out: %ITcP: T. cruzi (epimastigotes) % inhibition proliferation
Method: The trypanocidal activity of compounds 7–39 was evaluated on the viability of T. cruzi epimastigotes (Y Strain). Parasites were cultivated in LIT medium supplemented with 10% FBS. The MTT method was used with minor modifications. Next, 2 × 10^6 parasites/mL were seeded in a 96-well plate, adding 50 μM of each derivative dissolved in DMSO (final concentration remained below 1%). The plate was incubated for 96 h at 29 °C. Then, 5 mg mL^−^1 of 3-(4,5-dimethylthiazol-2-yl)-2,5-diphenyl tetrazolium bromide (MTT) was added and incubated in darkness for 4 h. After this time, acidic isopropanol (4N) was added and the plate was read at 540 nm in a spectrophotometer Synergy HT (Biotek). Benznidazole (50 µM) was used as a reference drug.

VERO cells = assay: Cytotoxicity assay in VERO cells (MTT); format: cell-based; details: Chlorocebus sabaeus, 72 h
Method: The in vitro evaluations of compounds toxicity by MTT in VERO cells were performed as described in brief: VERO cells culture in DMEM, BSF 10%, were counted in suspension, seeded at 2 × 10^4 cells/well (100 μL) into a 96-well microplate, and incubated at 37 °C in a humidified 5% CO2 incubator for 24 h. After the incubation period, compounds were added in different concentrations: 50, 100, 150, 200, and 500 μM. The plate was incubated for 72 h in the same conditions. Then, 5 mg mL^−^1 of 3-(4,5-dimethylthiazol-2-yl)-2,5-diphenyl tetrazolium bromide (MTT) was added and incubated in darkness for 4 h. After this time, DMSO was added and the plate was read at 540 nm in a spectrophotometer Synergy HT (Biotek). The test was carried out in triplicate including untreated cells and reference drug controls.

P. berghei ANKA = assay: Four-day suppressive test in P. berghei-infected mice; format: in vivo, Plasmodium berghei (male Balb-C mice); details: for Sd: Survival days (± SEM): 20 mg kg−1 ip once daily, days 1–4 post-infection; for Sd: Survival days (± SEM) / %P: Percentage of parasitemia (± SEM): n = 6; for %P: Percentage of parasitemia (± SEM): fourth day post-infection, 20 mg kg−1 ip once daily for 4 days; for Survival: surviving mice/total, 20 mg kg−1 ip for 4 days
Method: Male Balb-C mice with a weight of 18–22 g were fed with a commercial diet ad libitum under standard procedures of animal care following the aforementioned method approved by the Ethics Committee of the Institute of Immunology. The animals were infected with a rodent malaria strain of Plasmodium berghei ANKA. A million infected erythrocytes, in phosphate-buffered saline solution (PBS, 10 mM, pH 7.4, 0.1 mL), were inoculated ip to infect the animal. The parasitemia was inspected by continuous microscopic examination of Giemsa-stained smears.
One million P. berghei, injected in the caudal vein i.v, were used to infect the mice (n = 6). After two hours of inoculation, the compounds that were active in vitro were dissolved in DMSO (0.1 M) and subsequently diluted with Saline-Tween 20 solution (2%), and administered ip for 4 days (20 mg kg^−^1). The parasite load was evaluated on the fourth day by examining Giemsa-stained smears. Chloroquine (20 mg kg^−^1) was used as the positive control and saline solution as the negative control. Non-treated mice were used as a baseline control for survival times. The survival days and percentage of parasitemia were used to express the results.

β-hematin formation = assay: Inhibition of β-hematin formation in vitro; format: biochemical; details: for IC50: n = 3, read-out: IC50 (βHF) inhibition of β-hematin formation (± SEM)
Method: The assay was performed according to previously reported protocols. Hemin chloride (50 μL, 4 mM) in DMSO (5.2 mg mL^−1) was pipetted into 96-well microplates. Different concentrations (0.1–100 mM) of the compounds in DMSO were added in triplicate (50 μL) with a final concentration of 0.025 mM–25 mM/well. Water (50 μL) or DMSO (50 μL) were used as controls. […] Next, the plates were incubated at 37 °C for 48 h and subsequently centrifuged (4000 rpm × 15 min). The supernatant was washed twice with DMSO (200 μL) and resuspended in NaOH (200 μL, 0.2 N). The solubilized products were diluted (1:2) with NaOH (0.1 N), and the plates were read in an ELISA reader at 405 nm (Microplate Reader, BIORAD-550). The results are expressed as % IβHF.

Compound: O=C(Cn1ccnc1[N+](=O)[O-])NCc1ccccc1 [Bnz, benznidazole, reference compound]
- inhibition at 50 µM [1]: 60 ± 2.9%
- IC50 (VERO cells): > 200 µM

Compound: CCN(CC)CCCC(C)Nc1ccnc2cc(Cl)ccc12 (stereo not shown) [CQ, chloroquine, reference compound]
- Sd: Survival days (± SEM) (P. berghei ANKA): 28 ± 1.34 days and 28 ± 1.3 days
- %P: Percentage of parasitemia (± SEM) (P. berghei ANKA): 1.4 ± 0.54%
- Survival (P. berghei ANKA): 5/6
- %IβHF: Percentage inhibition β-hematin formation (β-hematin formation; concentration of 10 μM): 95.34%
- IC50 (β-hematin formation): 0.18 ± 0.1 µM

Compound: COc1ccc2c(c1OC)C/C(=C\c1ccc(SCc3ccccc3)cc1)C2=O [compound 10, (E)-2-[4-(Benzylthio)benzylidene]-2,3-dihydro-4,5-dimethoxyinden-1-one]
- inhibition at 50 µM [1]: 33 ± 5.6%
- IC50 (VERO cells): > 150 µM
- Sd: Survival days (± SEM) (P. berghei ANKA): 18.8 ± 4.91 days and 18.8 ± 4.9 days
- %P: Percentage of parasitemia (± SEM) (P. berghei ANKA): 9.1 ± 2.44%
- Survival (P. berghei ANKA): 0/6
- IC50 (β-hematin formation): 33.1 ± 2.5 µM

Compound: COc1cc2c(cc1OC)C(=O)/C(=C/c1ccc(SCc3ccccc3)cc1)C2 [compound 11, (E)-2-[4-(Benzylthio)benzylidene]-2,3-dihydro-5,6-dimethoxyinden-1-one]
- inhibition at 50 µM [1]: 40 ± 8.2%
- IC50 (VERO cells): > 150 µM
- Sd: Survival days (± SEM) (P. berghei ANKA): 14.2 ± 2.16 days and 14.2 ± 2.2 days
- %P: Percentage of parasitemia (± SEM) (P. berghei ANKA): 7.6 ± 2.3%
- Survival (P. berghei ANKA): 0/6
- IC50 (β-hematin formation): 0.82 ± 0.1 µM

Compound: COc1ccc(OC)c2c1C/C(=C\c1ccc(SCc3ccccc3)cc1)C2=O [compound 12, (E)-2-[4-(Benzylthio)benzylidene]-2,3-dihydro-4,7-dimethoxyinden-1-one]
- inhibition at 50 µM [1]: 18.5 ± 2.9%
- IC50 (VERO cells): > 150 µM
- Sd: Survival days (± SEM) (P. berghei ANKA): 12.3 ± 2.40 days and 12.3 ± 2.4 days
- %P: Percentage of parasitemia (± SEM) (P. berghei ANKA): 12.5 ± 3.1%
- Survival (P. berghei ANKA): 0/6
- IC50 (β-hematin formation): 0.66 ± 0.1 µM

- melting point: 170 to 172 °C
Compound: O=C1/C(=C/c2ccc(SCc3ccccc3)cc2)Cc2cc(F)cc(F)c21 [compound 19, (E)-2-[4-(Benzylthio)benzylidene]-5,7-difluoro-2,3-dihydroinden-1-one]
- IC50 (VERO cells): > 150 µM

- melting point: 202 to 203 °C
Compound: O=C1/C(=C/c2ccc(OCc3ccccc3)cc2)Cc2c(Cl)cc(Cl)cc21 [compound 30, (E)-2-[4-(Benzyloxy)benzylidene]-4,6-dichloro-2,3-dihydroinden-1-one]

- melting point: 204 to 206 °C
Compound: O=C1/C(=C/c2ccc(OCc3ccccc3)cc2)Cc2cc(F)cc(F)c21 [compound 31, (E)-2-[4-(Benzyloxy)benzylidene]-5,7-difluoro-2,3-dihydroinden-1-one]

- melting point: 99 to 100 °C
Compound: O=C1/C(=C/c2ccc(SCc3ccccc3)cc2)CCc2ccccc21 [compound 32, (E)-2-[4-(Benzylthio)benzylidene]-3,4-dihydronaphthalen-1(2H)-one]
- inhibition at 50 µM [1]: 43.7 ± 6.7%
- IC50 (VERO cells): > 150 µM

Compound: COc1cccc2c1CC/C(=C\c1ccc(SCc3ccccc3)cc1)C2=O [compound 33, (E)-2-[4-(Benzylthio)benzylidene]-3,4-dihydro-5-methoxynaphthalen-1(2H)-one]
- inhibition at 50 µM [1]: 51.1 ± 3.4%
- IC50 (VERO cells): > 150 µM

- melting point: 122 to 124 °C
Compound: COc1ccc2c(c1)CC/C(=C\c1ccc(SCc3ccccc3)cc1)C2=O [compound 34, (E)-2-[4-(Benzylthio)benzylidene]-3,4-dihydro-6-methoxynaphthalen-1(2H)-one]

Compound: COc1ccc2c(c1)C(=O)/C(=C/c1ccc(SCc3ccccc3)cc1)CC2 [compound 35, (E)-2-[4-(Benzylthio)benzylidene]-3,4-dihydro-7-methoxynaphthalen-1(2H)-one]
- inhibition at 50 µM [1]: 36.2 ± 6.1%
- IC50 (VERO cells): > 150 µM
